Experimental data: ChEMBL document CHEMBL5729281, “Dihydrooxadiazinones” (2022)

Assays:
[1] = biological target: cGMP-inhibited 3',5'-cyclic phosphodiesterase 3B (Homo sapiens, UniProt Q13370); test: (§1) PDE3B Enzyme Inhibition: The commercially available 3H-cAMP Scintillation Proximity Assay (SPA, Perkin Elmer) system was used for enzyme inhibition studies. For the determination of the in vitro effect of example compounds on the PDE3B reactions 2 μl of the respective example compound solution in DMSO (serial dilutions) were placed in wells of microtiter plates (Isoplate-96/200W; Perkin Elmer). 50 μl of a dilution of PDE3B cell extract from Sf9 cells overexpressing human full length PDE3B (SB Drug Discovery, UK) in buffer A (50 mM Tris/HCl pH 7.5, 8.3 mM MgCl2, 1.7 mM EDTA, 0.2% BSA) was added. The dilution of the PDE3B cell extract was chosen such that the reaction kinetics was linear and less than 70% of the substrate was consumed (typical dilution 1:6000). The reaction was started by addition of 50 μl (0.025 μCi) of 1:2000 in buffer A w/o BSA diluted substrate [8-3H]adenosine 3′, 5′-cyclic phosphate (1 μCi/μl; Perkin Elmer). After incubation at room temperature for 60 min, the reaction was stopped by addition of 25 μl of a suspension containing 18 mg/ml yttrium scintillation proximity beads (Perkin Elmer) in water. The microtiter plates were sealed and measured in a Microbeta scintillation counter (PerkinElmer Wallac). IC50 values were determined from sigmoidal curves by plotting percentage PDE3B activity vs log compound concentration.
Chain of cGMP-inhibited 3',5'-cyclic phosphodiesterase 3B (Q13370 whole entry): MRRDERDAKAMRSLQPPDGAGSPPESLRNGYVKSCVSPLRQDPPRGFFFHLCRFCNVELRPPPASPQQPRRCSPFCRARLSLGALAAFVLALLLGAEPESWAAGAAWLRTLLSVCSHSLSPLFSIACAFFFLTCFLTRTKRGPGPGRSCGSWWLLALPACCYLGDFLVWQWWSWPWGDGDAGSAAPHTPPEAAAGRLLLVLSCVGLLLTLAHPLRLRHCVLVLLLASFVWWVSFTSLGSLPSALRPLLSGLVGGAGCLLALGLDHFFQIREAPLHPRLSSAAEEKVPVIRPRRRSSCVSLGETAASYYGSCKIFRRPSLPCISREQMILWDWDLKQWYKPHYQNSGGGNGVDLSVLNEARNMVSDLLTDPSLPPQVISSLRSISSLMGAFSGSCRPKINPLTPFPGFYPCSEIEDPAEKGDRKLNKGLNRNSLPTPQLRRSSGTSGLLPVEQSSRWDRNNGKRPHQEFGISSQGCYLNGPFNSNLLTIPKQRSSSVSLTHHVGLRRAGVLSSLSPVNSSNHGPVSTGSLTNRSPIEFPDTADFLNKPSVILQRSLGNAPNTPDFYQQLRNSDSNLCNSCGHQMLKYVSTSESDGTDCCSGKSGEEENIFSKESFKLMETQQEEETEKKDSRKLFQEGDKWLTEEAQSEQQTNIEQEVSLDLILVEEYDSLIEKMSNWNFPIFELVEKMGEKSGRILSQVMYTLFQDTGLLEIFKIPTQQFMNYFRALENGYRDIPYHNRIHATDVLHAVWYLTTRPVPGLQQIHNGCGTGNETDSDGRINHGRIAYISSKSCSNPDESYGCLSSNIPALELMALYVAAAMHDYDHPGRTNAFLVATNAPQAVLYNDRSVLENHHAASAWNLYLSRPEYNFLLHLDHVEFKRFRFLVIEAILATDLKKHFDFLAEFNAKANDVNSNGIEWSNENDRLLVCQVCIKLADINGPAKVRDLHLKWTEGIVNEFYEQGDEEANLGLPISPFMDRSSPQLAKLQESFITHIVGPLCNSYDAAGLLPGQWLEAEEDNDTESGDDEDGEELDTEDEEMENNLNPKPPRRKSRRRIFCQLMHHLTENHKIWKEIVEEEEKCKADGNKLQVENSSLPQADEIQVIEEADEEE

[2] = biological target: cGMP-inhibited 3',5'-cyclic phosphodiesterase 3A (Homo sapiens, UniProt Q14432); test: as §1, with “PDE3A” for “PDE3B”, “1:5000).” for “1:6000).”
Chain of cGMP-inhibited 3',5'-cyclic phosphodiesterase 3A (Q14432 whole entry): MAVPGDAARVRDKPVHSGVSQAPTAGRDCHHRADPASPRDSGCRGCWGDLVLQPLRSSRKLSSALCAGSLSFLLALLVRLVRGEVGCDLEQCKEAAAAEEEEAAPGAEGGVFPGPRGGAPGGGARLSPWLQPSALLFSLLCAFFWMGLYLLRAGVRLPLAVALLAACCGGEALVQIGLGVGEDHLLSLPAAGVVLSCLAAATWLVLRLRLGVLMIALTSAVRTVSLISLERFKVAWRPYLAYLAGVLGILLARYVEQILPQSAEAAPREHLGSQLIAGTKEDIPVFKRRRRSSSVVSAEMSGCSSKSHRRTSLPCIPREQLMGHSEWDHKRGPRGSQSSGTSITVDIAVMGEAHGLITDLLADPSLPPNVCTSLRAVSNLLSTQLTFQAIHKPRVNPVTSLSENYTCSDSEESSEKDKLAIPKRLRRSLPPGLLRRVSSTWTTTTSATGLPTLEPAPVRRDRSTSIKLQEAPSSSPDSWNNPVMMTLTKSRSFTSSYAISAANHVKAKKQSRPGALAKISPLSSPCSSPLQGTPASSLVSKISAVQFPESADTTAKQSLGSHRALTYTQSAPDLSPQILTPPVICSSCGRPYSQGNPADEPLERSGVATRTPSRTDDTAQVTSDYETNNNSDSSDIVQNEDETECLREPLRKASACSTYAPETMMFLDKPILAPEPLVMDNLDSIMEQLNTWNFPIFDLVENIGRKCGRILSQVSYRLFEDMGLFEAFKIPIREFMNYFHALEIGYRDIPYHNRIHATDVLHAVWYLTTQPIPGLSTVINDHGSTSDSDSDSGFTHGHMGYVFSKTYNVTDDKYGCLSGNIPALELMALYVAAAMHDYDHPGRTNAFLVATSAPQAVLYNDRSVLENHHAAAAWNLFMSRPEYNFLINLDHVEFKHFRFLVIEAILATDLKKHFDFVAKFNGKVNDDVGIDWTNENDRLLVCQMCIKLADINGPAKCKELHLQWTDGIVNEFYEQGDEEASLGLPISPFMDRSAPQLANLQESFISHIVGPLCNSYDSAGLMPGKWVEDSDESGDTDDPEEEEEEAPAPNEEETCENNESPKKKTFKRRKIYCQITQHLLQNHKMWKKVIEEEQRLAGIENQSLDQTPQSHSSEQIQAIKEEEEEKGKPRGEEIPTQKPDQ

| IC50 [1] | IC50 [2] | SMILES |
| --- | --- | --- |
| 9 nM | 11 nM | C[C@@H]1OC(=O)NN=C1c1ccc(N2CC(C)(O)C2)c(C(F)(F)F)c1 |
| 23 nM | 20 nM | C[C@@H]1OC(=O)NN=C1c1ccc(N2CC(F)(F)C2)c(C(F)(F)F)c1 |
| 383 nM | 657 nM | C[C@@H]1OC(=O)NN=C1c1ccc(-n2ccc(C(F)(F)F)n2)c(C(F)(F)F)c1 |
| 44 nM | 110 nM | Cc1cc(C2=NNC(=O)OC2)ccc1-c1cccnc1 |
